From BindingDB's records for patent US20250214967 (Berrybio (Shanghai), 2025) come the findings set out here.

Usually IC50 stands for the concentration that gives 50% inhibition. The low end stands for greater potency, the high end for weaker potency.

In this experiment the target is Focal adhesion kinase 1 (Homo sapiens, UniProt Q05397). The experiment in a line: FAK Kinase Assay. How it is done: The inhibitory activity of a compound against FAK was determined in a buffer containing 5 mM HEPES, pH 7.5, 0.01% Triton, 0.5 mM EGTA, and 0.01% BRIJ™-35 in a 384-well assay plate. The assay was carried out in the presence of the FAK at 1 nM and ATP at 6.8 μM using fluorescein-polyGT (0.2 μM) as an FAK substrate. Each assay mixture was incubated at room temperature for 30 min. A LANTHASCREEN Tb-PY20 antibody was added to each well to stop the enzymatic reaction. The plate was incubated at room temperature for 60 min before reading on an ENVISION using TR-FRET module (excitation at 340 nm and emission at 520 nm and 495 nm).
Sequence of Focal adhesion kinase 1 (Q05397 whole entry): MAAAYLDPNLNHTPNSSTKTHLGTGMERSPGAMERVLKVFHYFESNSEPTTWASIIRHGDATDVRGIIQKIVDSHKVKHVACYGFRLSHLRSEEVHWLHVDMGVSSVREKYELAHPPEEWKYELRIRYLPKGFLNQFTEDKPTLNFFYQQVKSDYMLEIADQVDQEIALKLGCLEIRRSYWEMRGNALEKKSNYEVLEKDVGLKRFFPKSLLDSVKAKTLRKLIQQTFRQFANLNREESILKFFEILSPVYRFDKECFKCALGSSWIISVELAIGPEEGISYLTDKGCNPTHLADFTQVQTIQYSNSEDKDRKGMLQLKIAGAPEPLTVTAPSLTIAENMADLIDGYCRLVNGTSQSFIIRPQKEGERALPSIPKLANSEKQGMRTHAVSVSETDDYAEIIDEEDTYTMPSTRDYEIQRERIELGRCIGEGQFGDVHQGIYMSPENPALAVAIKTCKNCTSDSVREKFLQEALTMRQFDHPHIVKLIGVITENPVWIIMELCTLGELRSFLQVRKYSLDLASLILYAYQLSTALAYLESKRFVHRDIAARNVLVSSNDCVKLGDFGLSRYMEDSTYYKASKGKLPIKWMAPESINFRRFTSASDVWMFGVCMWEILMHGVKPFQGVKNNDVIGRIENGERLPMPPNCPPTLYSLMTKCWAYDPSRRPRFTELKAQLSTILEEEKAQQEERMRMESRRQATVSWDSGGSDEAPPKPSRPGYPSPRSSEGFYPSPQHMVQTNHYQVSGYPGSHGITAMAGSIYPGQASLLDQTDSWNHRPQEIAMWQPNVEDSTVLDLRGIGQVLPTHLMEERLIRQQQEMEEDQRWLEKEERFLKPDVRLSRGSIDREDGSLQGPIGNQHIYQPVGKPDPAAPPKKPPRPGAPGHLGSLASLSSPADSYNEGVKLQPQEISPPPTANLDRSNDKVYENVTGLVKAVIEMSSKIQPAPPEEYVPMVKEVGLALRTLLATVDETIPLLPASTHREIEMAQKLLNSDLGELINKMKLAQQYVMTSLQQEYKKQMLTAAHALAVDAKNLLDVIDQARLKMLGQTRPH

The compound `Cc1cc(Cc2ncc(C(F)(F)F)c(NCC3C=C(N(C)S(C)(=O)=O)CCC3)n2)ccc1OCCOCCOCCOc1ccc2c(c1)C(=O)N(C1CCC(=O)NC1=O)C2=O` (stereo unspecified) [US20250214967, Compound A2] came in with a half-inhibitory concentration (IC50) of 3 nM. That is a single-digit nanomolar value.
